Reference: patent US11851459B2, “Methods and uses of modulators of anaphase promoting complex (APC) activity for treating cancer” (University of Saskatchewan, priority 2018, dated 2023)

Assays:
Apc10 = biological target: T1, Apc10 (Saccharomyces cerevisiae, UniProt P53068); experiment: Yeast 2-hybrid (Y2H) assay, Apc10 bait; type: binding
T1 construct: expressed in transfected cells; host or cells: yeast Y2H cells
T1 sequence (P53068 1-250): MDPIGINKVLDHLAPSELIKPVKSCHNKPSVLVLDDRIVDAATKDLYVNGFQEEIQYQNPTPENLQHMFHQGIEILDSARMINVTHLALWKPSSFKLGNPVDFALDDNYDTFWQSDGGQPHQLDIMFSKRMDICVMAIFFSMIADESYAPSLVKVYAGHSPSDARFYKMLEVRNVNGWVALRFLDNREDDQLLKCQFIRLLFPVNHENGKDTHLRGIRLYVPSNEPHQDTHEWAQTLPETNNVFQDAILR
Experimental: (§1) The reverse genetic screen utilized a yeast 2-hybrid (Y2H) protocol that selected for peptides that bound to the APC subunits Apc5 or Apc10 (see FIG. 8 for APC structure), to assess whether peptide-binding might modify APC function. Peptides that bound APC subunits were then assayed for those that suppressed APC mutant defects.
A library of random small peptides were cloned into a Thioredoxin (Trx) scaffold (see FIG. 9 for Trx-peptide structure) and expressed from a galactose-inducible Y2H prey vector in cells expressing the Apc10 bait vector (the modified Apc10 is still part of the complete APC complex). Six peptides that reproducibly interacted with the Apc10 bait construct in Y2H assays were identified (FIG. 1A) and were examined further. Cells will only grow in this assay if the peptide interacts with Apc5 or Apc10.
To identify peptides that bound to either Apc5 or Apc10 proteins using a yeast 2-hybrid (Y2H) screen, random small peptides were cloned into the TrxA scaffold (library provided by R. Geyer; FIG. 9) and expressed from a galactose-inducible Y2H prey vector in cells harboring either the APC5 or APC10 genes cloned into the Y2H bait vectors (APC5/APC10 bait constructs complement APC mutant defects).
(§2) Over 100 peptides that bound either Apc5 or Apc10 were recovered from millions screened. Six peptides that reproducibly interacted with the Apc5 or Apc10 bait construct in Y2H assays were examined further. Vectors expressing these 6 peptides were transformed into WT or APC mutant cells and assessed for ts growth.

[1] = test system: apc5 temperature sensitive mutant and/or apc10Δ mutant; experiment: Viability of APC mutant yeast (spot dilution); type: cell-based
From the text: Suitable APC activators also include APC activators that increase the cell viability of an wild-type and/or an APC mutant cell by at least 10%, at least 20%, at least 30%, at least 40%, at least 50%, at least 60%, at least 70% or at least 80% compared to a cell with wild-type APC function. […] Examples of yeast cells with defective APC function include apc5 and apc10 mutants. An example of an apc5 mutant is the apc5 temperature sensitive mutant described herein. An example of an apc10 mutant is the apc10 deletion mutant described herein. Viability of a yeast mutant can be measured for example, by the spot dilution assays described herein or any other method known in the art.
as §1, §2

APC (substrate Cyclin B) = experiment: Cyclin B protein levels in MCF7 cells; type: cell-based, human; details: MCF7, 48 hrs; 1 mM metformin or transient transfection of peptide plasmid
Experimental: MCF7 breast cancer cells were treated with 1 mM metformin or transiently transfected with an APC activating peptide (C43-4) for 48 hrs, then harvested for assessment of Cyclin B protein levels. Cyclin B is an APC target.
A mouse model for growing patient derived breast tumor cells obtained from a patient with triple negative breast cancer was developed. This patient had developed resistance to Doxorubicin. Tumors growing in these mice grow rapidly. Mice growing the patient derived xenografted (PDX) tumor were injected with various amounts of M2I-1. […] Since the APC was activated in the canines tested in this study following treatment with metformin, it was asked if metformin can directly activate the APC. Reduced APC substrate Cyclin B levels following metformin treatment in human MCF7 breast cancer cells was observed, similar to that observed when MDF7 cells express the C43-4 plasmid (see below for more on this plasmid) (FIG. 21).

MDA-MB-231 cells = experiment: DOX sensitivity, MTT viability assay, MDA-MB-231 cells expressing peptides; type: cell-based, human; details: for sensitivity to DOX treatment: DOX 1 uM 48 hrs
Experimental: A. Transient transfection of the C43-4 peptide plasmid into human triple negative MDA-MB-231 breast cancer cells followed by Western blot analysis of lysates against Cyclin B, Securin and Cdc20 showing enhanced protein loss. B. Cells in A were treated with DOX (1 uM) for 48 hrs with cell viability measured using an MTT assay kit. The experiment was done in triplicate with standard error of the means shown.
A. Stable integration of C43-4 in MDA-MB-231 cells was established by selection of transfected cells on Geneticin for 7 days. Westerns against APC substrates show APC activation. B. Cells in A were treated with DOX (1 uM) for 48 hrs with cell viability measured using an MTT assay kit. Mean and SEM of 3 biological repeats.
A. TNBC MDA-MB-231 cells stably expressing APC binding peptides activate the APC. Cells were grown to confluence and then used to prepare protein lysates. The lysates were used to measure levels of the APC substrate CDC20, which will be reduced if the APC is activated. Cells stably expressing the pcDNA empty vector were used as a control. B. In a similar experiment, MDA-MB-231 cells stably expressing the APC binding peptides shown, or the empty vector control, were used to measure protein levels of the APC substrate HURP using Westerns. C. Triplicate blots as in B were scanned, normalized to tubulin and plotted. Error of the mean is shown. Significant changes are indicated. D. MDA-MB-231 cells stably expressing the empty pcDNA vector, or the C43-4 and C13-3 APC binding peptides, were treated with 1 μM Doxorubicin for 24 hrs. Cell viability was measured using an MTT viability assay.
In FIG. 26B, MDA-MB-231 cells were also stably transfected with the peptides C1-8, C2-4B, C3-1B, and C9-5. Levels of the APC substrate HURP were measured in lysates prepared from these cells. […] The empty vector pcDNA was also stably expressed in 231 cells and used as a control.

| Sequence | binds Apc10 in a yeast 2 hybrid assay (Apc10) | viability of an APC mutant [1] | APC substrate Cyclin B protein levels (APC (substrate Cyclin B)) | synergy with Doxorubicin (killing effect) (MDA-MB-231 cells; stably transfected, 1 uM Doxorubicin 24 hours) | sensitivity to DOX treatment (MDA-MB-231 cells; stably transfected) | sensitivity to DOX treatment (MDA-MB-231 cells; transiently transfected) |
| --- | --- | --- | --- | --- | --- | --- |
| NGSSHNDLRVRRLTLISRLC [C43-4] | Binds Apc10 | increases the viability | reduces protein levels | synergize | resensitized | resensitized |
| RMPQWWQWMWV [C2-4B] | Binds Apc10 | increases the viability of an APC mutant | – | – | – | – |
